This is an account of results in patent US12285431B2, “Treatment of Rb-negative tumors using topoisomerase inhibitors in combination with cyclin dependent kinase 4/6 inhibitors” (G1 Therapeutics, Inc., priority 2014, dated 2025).

One series has as its system HS68 cells. The experiment in a line: G1 arrest (cellular G1 and S-phase) assay, propidium iodide flow cytometry. It counts as cell-based, human. The settings on record: Homo sapiens, Hs68, HS68 cells. How it is done:
HS68 cells (human skin fibroblast cell line (Rb-positive)) were stained with propidium iodide staining solution and run on Dako Cyan Flow Cytometer. The fraction of cells in G0-G1 DNA cell cycle versus the fraction in S-phase DNA cell cycle was determined using FlowJo 7.2.2 analysis.
The compounds listed in Table 1 were tested for their ability to arrest HS68 cells at the G1 phase of the cell cycle.
For orientation: A flow cytometer gives signals particle by particle.

Series [1] deals with MCF7 (breast adenocarcinoma, Rb-positive). The experiment in a line: Cellular proliferation assay (CellTiter-Glo), MCF7. The format is cell-based. The settings on record: Homo sapiens, MCF7, 144 h, cell viability after six days. A general note: Cellular ATP, detected with luciferase, serves as a proxy for viable cell number.
For the next series, the target named is CDK6/CycD3 (Homo sapiens, UniProt Q00534). Description: CDK6/CycD3 kinase assay. The settings on record: read-out: CDK6/CycD3 IC50; Table 3.
Series [2] concerns A2058 (human metastatic melanoma cells, Rb-negative). Description: Cellular proliferation assay (CellTiter-Glo), A2058. The following applies: A2058, 144 h, cell viability after six days. The format is cell-based.
Series [3] deals with ZR-75-1 (breast ductal carcinoma, Rb-positive). Description: Cellular proliferation assay (CellTiter-Glo), ZR-75-1. The following applies: Homo sapiens, ZR-75-1, 144 h, cell viability after six days, read-out: ZR75-1 Cellular EC50. It counts as cell-based. How it is done: Further cellular proliferation assays were conducted using the following cancer cell lines: MCF7 (breast adenocarcinoma—Rb-positive), ZR-75-1 (breast ductal carcinoma—Rb-positive), H69 (human small cell lung cancer—Rb-negative) cells, or A2058 (human metastatic melanoma cells—Rb-negative). These cells were seeded in Costar (Tewksbury, Massachusetts) 3093 96 well tissue culture treated white walled/clear bottom plates. Cells were treated with the compounds of Table 1 as nine point dose response dilution series from 10 uM to 1 nM. Cells were exposed to compounds and then cell viability was determined after either four (H69) or six (MCF7, ZR75-1, A2058) days as indicated using the CellTiter-Glo® luminescent cell viability assay (CTG; Promega, Madison, Wisconsin, United States of America) following the manufacturer's recommendations. Plates were read on BioTek (Winooski, Vermont) Syngergy2 multi-mode plate reader. The Relative Light Units (RLU) were plotted as a result of variable molar concentration and data was analyzed using Graphpad (LaJolla, California) Prism 5 statistical software to determine the EC50 for each compound.

Series [4] has as its system H69 (human small cell lung cancer, Rb-negative) cells. Description: Cellular proliferation assay (CellTiter-Glo), H69. It counts as cell-based. The following applies: NCI-H69, 96 h, cell viability after four days.
Series [5] in a line: Mouse pharmacokinetics (oral gavage / intravenous). It counts as in vivo, mice. The following applies: for AUC 0-inf (uM * h) i.v.: 10 mg/kg intravenous injection; for AUC (uM * h) p.o. / Cmax / Tmax (h) p.o. / t1/2 (h) p.o.: 30 mg/kg oral gavage; for t1/2 (h) p.o.: 30 mg/kg.
For series [6], the system named is A2058 cells (Rb-negative). The experiment in a line: Cell cycle arrest screen, A2058. The format is cell-based. The following applies: 24 hours. The source says: (§1) To test the ability of the disclosed CDK4/6 inhibitors to induce a clean G1-arrest, a cell based screening method was used consisting of two Rb-positive (tHS68 and WM2664) and one Rb-negative (A2058) cell line. […] At the conclusion of the experiment, cells were harvested, fixed, and stained with propidium iodide (a DNA intercalator), which fluoresces strongly red (emission maximum 637 nm) when excited by 488 nm light. Samples were run on Dako Cyan flow cytometer and >10,000 events were collected for each sample. Data were analyzed using FlowJo 2.2 software developed by TreeStar, Inc.

Series [7] deals with tHS68 cells (Rb-positive). The experiment in a line: Cell cycle arrest screen, tHS68. It counts as cell-based.
From the text: as §1

Series [8] deals with NCI-H69 SCLC xenograft (Rb-negative). The format is in vivo. From the text: An Rb-negative model of small cell lung cancer was used in the following example. Briefly, xenografts of National Cancer Institute (NCI) […] cells were grafted onto the mice (Athymic Nude (Crl:NU(NCr)-Foxn1^nu); 6-12 week old females) using the South Texas Accelerated Research Therapeutics (START) Cell-Based Xenograft (START-CBX) tumor model. H69 cells are human small cell lung cancer cells and are Rb-negative.
Data collected from the efficacy study included animal weights, observations and tumor dimensions. This information was used to determine agent tolerability based on weight change and gross physiologic changes and anticancer activity based on tumor growth delay or regression. The designated endpoint for this study was an individual tumor volume of 1 cm^3 or 60 days following treatment initiation.
Tumor fragments from NCI-H69 were harvested from host animals and implanted into immune-deficient mice and the study initiated at a mean tumor volume of approximately 150-250 mm^3.
Additional details of the study are outlined in Table 6 below. […] Tumor size was examined twice per week and the endpoint for this study was Day 59.

The subject of series [9] is Rb phosphorylation (Ser780, Ser807/811) in tHS68 cells. The experiment in a line: Rb phosphorylation western blot, tHS68. The format is cell-based. The settings on record: tHS68, 300 nM, 4, 8, 16 and 24 hours. How it is done: (§2) The CDK4/6-cyclin D complex is essential for progression from G1 to the S-phase of the DNA cell cycle. This complex phosphorylates the retinoblastoma tumor suppressor protein (Rb). […] Samples were lysed and protein was assayed by western blot analysis. Rb phosphorylation was measured at two sites targeted by the CDK4/6-cyclin D complex, Ser780 and Ser807/811 using species specific antibodies.

Series [10] concerns WM2664 cells (Rb-positive). Description: Cell cycle arrest screen, WM2664. The following applies: 24 hours. The format is cell-based.
From the text: as §1

Series [11] relates to Rb phosphorylation (Ser780, Ser807/811) in A2058 cells. The experiment in a line: Rb phosphorylation western blot, A2058. It counts as cell-based. The settings on record: A2058, 300 nM, 4, 8, 16 and 24 hours. How it is done:
as §2
(In general: Immunoblotting shows a protein as a band on a membrane.)

The subject of series [12] is Rb phosphorylation (Ser780, Ser807/811) in WM2664 cells. The experiment in a line: Rb phosphorylation western blot, WM2664. The settings on record: WM2664, 300 nM, 4, 8, 16 and 24 hours. The format is cell-based. How it is done:
as §2

Series [13] has as its system 456 (395 non-mutant) kinases. Description: DiscoveRx KINOMEscan profiling. It counts as binding. The settings on record: single concentration 1000 nM.
Series [14] has as its system NCI-H69 SCLC xenograft (Rb-negative). Description: NCI-H69 SCLC xenograft model, Example 156. It counts as in vivo, mice. The settings on record: Compound T 100 mg/kg po qd×5×4; carboplatin 40 mg/kg and etoposide 4 mg/kg ip twice per week for 3 weeks; topotecan 0.6 mg/kg ip once daily for 5 days; FIG. 11.
[15] abbreviates: Group 2: Compound T 100 mg/kg PO qdx5x4 and topotecan vehicle.

Each structure is given as a SMILES string. “Also recorded” adds a separate entry of the source.

Sequence of CDK6/CycD3 (Q00534 whole entry, species assumed): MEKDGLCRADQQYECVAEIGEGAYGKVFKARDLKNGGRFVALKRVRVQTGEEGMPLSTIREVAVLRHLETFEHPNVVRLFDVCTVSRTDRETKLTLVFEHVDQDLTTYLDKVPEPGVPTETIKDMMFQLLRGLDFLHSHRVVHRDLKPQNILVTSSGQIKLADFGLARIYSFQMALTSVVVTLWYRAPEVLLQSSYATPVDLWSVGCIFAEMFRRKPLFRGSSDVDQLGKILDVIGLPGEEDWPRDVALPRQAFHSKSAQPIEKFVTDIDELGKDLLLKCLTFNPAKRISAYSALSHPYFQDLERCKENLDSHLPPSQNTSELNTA
Sequence of CDK6/CycD3 (P30281 whole entry partner, species assumed): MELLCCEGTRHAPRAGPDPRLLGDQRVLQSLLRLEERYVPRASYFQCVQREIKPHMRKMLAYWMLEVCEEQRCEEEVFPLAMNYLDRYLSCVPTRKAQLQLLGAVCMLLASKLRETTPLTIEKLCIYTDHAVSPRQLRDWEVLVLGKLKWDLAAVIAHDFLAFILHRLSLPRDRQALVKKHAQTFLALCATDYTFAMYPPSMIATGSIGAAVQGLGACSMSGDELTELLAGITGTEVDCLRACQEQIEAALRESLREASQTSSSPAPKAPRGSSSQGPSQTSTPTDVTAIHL

The term EC50 denotes the midpoint of the concentration-response curve. By Cmax is commonly meant the highest concentration seen after dosing. The molecule `CC(C)N1CCN(c2ccc(Nc3ncc4cc5n(c4n3)C3(CCCCC3)CNC5=O)nc2)CC1` [Compound GG] displayed an EC50 in the series on HS68 cells of 80 nM. Besides, in [1], a half-maximal response (EC50) required 52 nM. Also, at CDK6/CycD3, the IC50 is 4.7 nM. Besides, it took 2690 nM to reach a half-maximal effect in series [2] (EC50). Besides, in [3], the EC50 was 62 nM. Moreover, a half-maximal response in [4] (EC50) required 2920 nM. In addition, in [5], the “AUC 0-inf (uM * h) i.v.” value came out at 1.1 µM·h, the “AUC (uM * h) p.o.” value amounted to 1.9 µM·h, the concentration peaked (Cmax) at 1.9 µM and the “Tmax (h) p.o.” value came to 1 h. Also, in series [5], the “t1/2 (h) p.o.” value came out at 3.5 h.

In the case of `CN1CCN(c2ccc(Nc3ncc4cc5n(c4n3)C3(CCCCC3)CNC5=O)nc2)CC1` [Compound T], in [6], the “cell cycle distribution at 300 nM (in words)” value was “does not cause a loss of the S-phase peak”. In the series on HS68 cells, this molecule gave an EC50 of 100 nM. Besides, it took 49 nM to reach a half-maximal effect in series [1] (EC50). The “cell cycle distribution at 300 nM (in words)” value in series [7] (300 nM, 24 hours) was “loss of the S-phase peak”. For the same molecule, in series [7] (24 hours treatment, read-out: G1 cell cycle arrest EC50), the EC50 is 80 nM. For the same molecule, the “S-phase fraction at the highest concentration shown” value in series [7] (24 hours, 28% at baseline) was determined as 6%. Besides, the “cell cycle distribution, increasing concentrations (in words)” value in series [7] (24 hours, FIG. 9A) is “robust G1 cell cycle arrest; also recorded: clean G1 arrest accompanied by a corresponding decrease in the number of cells in S-phase”. Also, the EC50 in series [2] is greater than 3000 nM. Moreover, the EC50 in [3] came to 36 nM. Also, in series [8] (Compound T alone 100 mg/kg, topotecan 0.6 mg/kg, combination with each Compound T dose (100, 50 or 10 mg/kg), FIG. 16), the “activity toward NCI-H69 xenografts / tumor volume (in words)” value was “inactive”. Besides, the “tolerability: weight loss or toxicity (in words)” value in [8] (Compound T alone or thirty minutes before topotecan, FIG. 13) was “well tolerated with no additive weight loss or toxicity”. Further, in series [8] (setting [15]), the “CR (tumor volume < 15 mm^3)” value stood at 0, the “LTS (individual tumor volume < volume endpoint at study time endpoint)” value was 0, the “MTTE ± SD (timepoint in days to reach designated tumor volume or time endpoint)” value was 14 ± 4 days and the “PR (%) (tumor volume ≥ 50% regression versus Day 0)” value came out at 0%. For the same molecule, in series [8] (setting [15]), the “T-C (difference in days between MTTE of treatment and control groups)” value was less than 0 days; the “TFS (complete responder at study endpoint)” value was 0. For the same molecule, the “Rb phosphorylation at Ser780 and Ser807/811 (in words)” value (“Rb phosphorylation” for short) in series [9] is recorded as “blocks Rb phosphorylation in Rb-positive cell lines by 16 hours post exposure; also recorded: reduced Rb-phosphorylation starting 16 hours after treatment”. Moreover, the “cell cycle distribution at 300 nM (in words)” value in [10] is given as “loss of the S-phase peak”. The “Rb phosphorylation” value in series [11] is reported as “but not in the Rb-negative cell line (A2058)”. The EC50 in series [4] was greater than 3000 nM. In series [12], the “Rb phosphorylation” value is “blocks Rb phosphorylation in Rb-positive cell lines by 16 hours post exposure; also recorded: reduced Rb-phosphorylation starting 16 hours after treatment”. In addition, in [5], the “AUC 0-inf (uM * h) i.v.” value came out at 1.3 µM·h, the “AUC (uM * h) p.o.” value worked out at 2.9 µM·h, the Cmax came to 2.5 µM and the “Tmax (h) p.o.” value was 1 h. In addition, the “t1/2 (h) p.o.” value in series [5] worked out at 5 h. Moreover, in [13], the “number of 395 non-mutant kinases inhibited, inhibitory threshold 65%” value is reported as 92; the “number of 395 non-mutant kinases inhibited, inhibitory threshold 90%” value worked out at 31; the “number of 395 non-mutant kinases inhibited, inhibitory threshold 99%” value is on record as 6; the “share of 395 non-mutant kinases inhibited, inhibitory threshold 65%” value is 23.3%. In series [13], the “share of 395 non-mutant kinases inhibited, inhibitory threshold 90%” value came out at 7.8% and the “share of 395 non-mutant kinases inhibited, inhibitory threshold 99%” value was 1.5%. In addition, the “effect on tumor growth / tumor size (in words)” value in series [14] is recorded as “very little effect of slowing tumor growth”.
